# Experimental data reported in publication PMC7616177, “From structure to clinic: Design of a muscarinic M1 receptor agonist with the potential to treat Alzheimer’s disease” (Cell, 2021).
# pEC50: −log10 of the molar value. Like-named read-outs stand apart in the source and are kept apart here.
# Legend:
# [1] = target: T1, M4-receptor (Homo sapiens, UniProt P08173); experiment: M4-receptor functional agonist assay; assay type: cell-based; set-up: expressed in transfected cells; conditions: for pEC50: read-out: M4-receptor EC50
# T1 sequence (P08173 1-479): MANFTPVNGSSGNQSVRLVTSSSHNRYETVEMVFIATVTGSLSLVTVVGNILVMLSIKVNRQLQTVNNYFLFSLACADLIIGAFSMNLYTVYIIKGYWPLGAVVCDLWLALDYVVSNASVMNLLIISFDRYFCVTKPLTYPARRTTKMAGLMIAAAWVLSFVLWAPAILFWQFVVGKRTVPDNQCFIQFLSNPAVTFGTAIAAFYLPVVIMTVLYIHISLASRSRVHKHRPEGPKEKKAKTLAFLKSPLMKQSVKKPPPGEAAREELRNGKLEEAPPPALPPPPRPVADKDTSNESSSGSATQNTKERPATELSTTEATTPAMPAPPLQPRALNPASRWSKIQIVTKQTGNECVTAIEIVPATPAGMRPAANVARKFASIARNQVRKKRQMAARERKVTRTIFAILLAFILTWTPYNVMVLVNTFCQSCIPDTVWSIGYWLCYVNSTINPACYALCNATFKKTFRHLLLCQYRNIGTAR
# Procedure: (§1) Functional assays were performed using the Alphascreen Surefire phopho-ERK1/2 assay. […] Once adhered, cells were serum starved overnight. Agonist stimulation was performed by the addition of […] agonist to the cells for a pre-optimized 5 min period (37°C). Media was removed and 50 μl of lysis buffer added. After 15 min a 4 μl sample was transferred to a 384-well plate and 7 μl of detection mixture added.
# [2] = target: T2, human M1 receptor (Homo sapiens, UniProt P11229); experiment: M1-receptor functional agonist assays (pERK1/2 and calcium mobilisation) for hits and SAR; assay type: cell-based
# T2 construct: expressed in transfected cells
# T2 sequence (P11229 1-460): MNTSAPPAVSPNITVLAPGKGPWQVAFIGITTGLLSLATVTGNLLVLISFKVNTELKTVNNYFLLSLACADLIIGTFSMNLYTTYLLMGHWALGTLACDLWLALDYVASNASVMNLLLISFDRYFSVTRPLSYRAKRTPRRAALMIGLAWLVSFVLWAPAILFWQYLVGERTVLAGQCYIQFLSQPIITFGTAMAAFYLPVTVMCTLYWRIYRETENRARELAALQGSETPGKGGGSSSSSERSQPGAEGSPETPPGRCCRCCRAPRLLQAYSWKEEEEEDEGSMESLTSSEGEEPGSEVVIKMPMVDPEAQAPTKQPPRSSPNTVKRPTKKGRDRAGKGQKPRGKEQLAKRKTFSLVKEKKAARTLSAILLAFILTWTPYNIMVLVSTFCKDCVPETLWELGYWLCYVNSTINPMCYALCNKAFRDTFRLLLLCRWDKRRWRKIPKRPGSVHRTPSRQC
# [3] = target: T3, M2-receptor (Homo sapiens, UniProt P08172); experiment: M2-receptor functional agonist assay; assay type: cell-based; set-up: expressed in transfected cells
# T3 sequence (P08172 1-466): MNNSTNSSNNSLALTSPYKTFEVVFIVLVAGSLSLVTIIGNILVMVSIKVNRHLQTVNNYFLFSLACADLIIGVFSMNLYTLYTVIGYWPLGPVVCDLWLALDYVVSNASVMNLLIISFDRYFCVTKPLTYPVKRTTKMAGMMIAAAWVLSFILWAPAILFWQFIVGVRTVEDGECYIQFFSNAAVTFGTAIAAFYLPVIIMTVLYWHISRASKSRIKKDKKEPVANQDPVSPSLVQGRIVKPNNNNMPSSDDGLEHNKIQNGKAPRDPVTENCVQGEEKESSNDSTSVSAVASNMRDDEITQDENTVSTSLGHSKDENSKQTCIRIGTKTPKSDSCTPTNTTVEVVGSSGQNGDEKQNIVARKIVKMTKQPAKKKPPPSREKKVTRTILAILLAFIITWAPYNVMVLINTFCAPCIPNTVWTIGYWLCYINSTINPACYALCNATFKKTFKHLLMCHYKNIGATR
# Procedure: as §1
# [4] = system: Wistar rats; experiment: Scopolamine-induced amnesia in passive avoidance; assay type: in vivo, rat; conditions: rat passive avoidance, donepezil 0.01 mg/kg
# Procedure: Male adult Wistar rats (Harlan, UK; approximately 11 weeks of age) were acclimatised to the experimental rooms for three days (study days 1-3) and handled for a further two days (study days 4 and 5) prior to the experiment.
# Donepezil (0.01 and 0.1 mg/kg) was administered via intraperitoneal injection (in saline) 60 min prior to training. Rats were trained in a single-trial, step-through, light-dark passive avoidance paradigm. The training apparatus consisted of a chamber 300 mm in length, 260 mm wide, and 270 mm in height. The front and top were transparent, allowing the experimenter to observe the behavior of the animal inside the apparatus. The chamber was divided into two compartments, separated by a central shutter that contained a small opening (50 mm wide and 75 mm high) set close to the front of the chamber. The smaller of the compartments measured 90 mm in width and contained a low-light (~200 lux) illumination source. The larger compartment measured 210 mm in width and was not illuminated. The floor of this dark compartment consisted of a grid of 16 horizontal stainless-steel bars that were 5 mm in diameter and spaced 12.5 mm apart. A current generator supplied 0.75 mA to the grid floor, which was scrambled once every 0.5 s across the 16 bars.
# Animals were placed facing the rear of the light compartment of the apparatus, immediately after which, spontaneous behavior was assessed. The timer was started once the animal completely turned to face the front of the chamber. Latency to enter the dark chamber was recorded, and having completely entered the dark compartment foot shock was administered to the animal, which immediately returned to the light compartment. Animals were then returned to their home cages. Between each training session, both compartments of the chamber were cleaned to remove any confounding olfactory cues. Vehicle (saline) or scopolamine (1 mg/kg) was administered to rats 6 hours after training. Recall of the inhibitory stimulus was evaluated 24 hour post-training on study day 7, by returning the animal into the light chamber and recording their latency to enter the dark chamber, a criterion time of 600 s was employed. Observation of the animals was made by overhead video camera linked to a monitor behind a screened area. Animal treatment was blinded to the observer.
# [5] = target: T4, M3-receptor (Homo sapiens, UniProt P20309); experiment: M3-receptor functional agonist assay; assay type: cell-based
# T4 construct: expressed in transfected cells
# Procedure: as §1
# [6] = SAR, Table S4, read-out: M1-receptor agonist activity EC50
# T4 sequence (P20309 whole entry): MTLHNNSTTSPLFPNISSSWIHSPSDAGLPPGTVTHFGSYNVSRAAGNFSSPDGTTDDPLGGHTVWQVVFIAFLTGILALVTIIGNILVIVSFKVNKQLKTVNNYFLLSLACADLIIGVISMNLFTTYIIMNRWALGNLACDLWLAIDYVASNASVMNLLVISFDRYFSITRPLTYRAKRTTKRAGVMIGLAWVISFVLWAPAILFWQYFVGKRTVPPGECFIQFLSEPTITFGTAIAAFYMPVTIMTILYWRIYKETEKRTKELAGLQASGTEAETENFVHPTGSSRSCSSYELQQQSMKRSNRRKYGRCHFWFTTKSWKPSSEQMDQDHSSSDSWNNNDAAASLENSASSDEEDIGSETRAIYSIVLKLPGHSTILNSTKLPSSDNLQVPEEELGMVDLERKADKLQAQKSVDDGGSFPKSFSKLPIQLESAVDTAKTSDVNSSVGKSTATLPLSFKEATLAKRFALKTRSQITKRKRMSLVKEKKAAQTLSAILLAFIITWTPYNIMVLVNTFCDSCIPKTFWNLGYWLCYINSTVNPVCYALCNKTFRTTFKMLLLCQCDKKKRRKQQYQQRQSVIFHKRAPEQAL
compound,measurement,setting,value
CCOC(=O)N1CCC(N2CCC(C(=O)NCC(C)C)CC2)CC1 [Compound 5],M4-receptor agonist activity,[1],weak
same,pEC50,[2]; [6],6.50
same,M2-receptor agonist activity,[3],weak
"COc1cc2c(cc1OC)C(=O)C(CC1CCN(Cc3ccccc3)CC1)C2 (stereo not drawn) [donepezil, reference compound]",Response alone,[4],inactive
CCOC(=O)N1CCC(N2CCC(C(N)=O)CC2)CC1 [Compound 4],pEC50,"[2]; fragment hit, read-out: EC50 at the M1-receptor",5.46
"Cc1cc(F)c2[nH]c(=O)n(C3CCN(C4CCOCC4)CC3)c2c1 [GSK1034702, reference compound]",M2-receptor agonist activity,[3],significant M2-receptor agonist activity
CCOC(=O)N1CCC[C@@H](N2CCC(C(=O)NC3(C)CCC3)CC2)CC1 [(R)-Compound 7],pEC50,[1],5.60
same,pEC50,[2]; [6],6.40
same,pEC50,[5]; read-out: M3-receptor EC50,< 4.70
same,pEC50,[3]; read-out: M2-receptor EC50,< 4.70
CCOC(=O)N1CCCC(N2CCC(C(=O)NCC(C)C)CC2)CC1 (stereo not drawn) [Compound 6],Lower potency at M4-receptors relative to M1,[1]; M4 vs M1,ten-fold
same,pEC50,[1],6.10
same,pEC50,"[2]; calcium assays, read-out: Potency at the M1-receptor in calcium assays EC50",7.10
same,M3-receptor agonist activity,[5],no detectable agonist activity
same,M2-receptor agonist activity,[3],no detectable agonist activity
